Columns and labels:
[1] = Chemical stability test of solubilized docetaxel by HPLC; assay type: physicochemical; details: vial of Example 3, solubilizing composition with 15% DMA, 25° C., 60% relative humidity
Experimental: The vial of Example 3 containing a solubilizing composition of 15% DMA was subjected to a chemical stability test described as follows:
Immediately after solubilizing docetaxel and at periods of 2, 4, 6 and 8 hours starting from that moment, a sample is taken from the vial using a disposable syringe (1 ml, Darling) with a disposable hypodermic needle (50×8-21Gx2, Neojet). The volume of the sample was 0.5 ml and each sample was weighed and diluted up to a final volume of 10 ml with the mobile phase to be used in HPLC. Reconstituted material remained in a chamber at 25° C. and 60% room relative humidity during the test time.
Mobile phase: Filtered and deaerated mixture of acetonitrile, Methanol, water (26:32:42 v:v:v). The column used was Beckman stainless steel (Ultrasphere ODS of 4.6 mm×25 cm, 5 μm, part N° 235329). The guard column used was Beckman (Ultrasphere ODS of 4.6 mm×4.5 cm, 5 μm, part N° 243533). The detector used was UV type, Waters 2487 dual and the measure was done at wave length 232 nm. The volume injected was 20 μl, using a Waters 717 plus autosampler, and samples were maintained in the autosampler at 4° C. after preparation until the moment of being injected. Retention time for docetaxel is approximately 25 min and run time is 90 min. Flow rate remained 1.0 ml/min using a Waters 1525 binary pump for HPLC. The software used was Breeze version 3.30. The column temperature was 40° C. A standard for the assessment and determination of related substances was prepared, weighing exactly 20 mg of standard docetaxel in a volumetric flask of 50 ml; it was dissolved with 5 ml ethanol and was diluted up to final volume with mobile phase. A solution of impurity 10-deacethilbaccatine III was prepared in order to detect and quantify it in a chromatogram, weighing 5 mg of 10-deacethilbaccatine III, dissolving with 1 ml ethanol and diluting up to final volume, 10 ml, with mobile phase in a volumetric flask. In the same way, a solution of impurity 7-epi-docetaxel was prepared, weighing 10 mg of docetaxel, 10 ml of NaOH 0.005 N were added. It was left to stand for 2 hours; 2.5 ml of ethanol were added and it was diluted to final volume, 25 ml with mobile phase.

[2] = Laboratory solubility tests of docetaxel API versus lyophilized solid composition in tensoactives; assay type: physicochemical; details: for solubility in a tensoactive aqueous solution: direct dissolution

Row | Docetaxel concentration (percentage of area ratio) ([1]; time 0 hours) | Docetaxel concentration (percentage of area ratio) ([1]; time 2 hours) | Docetaxel concentration (percentage of area ratio) ([1]; time 4 hours) | Docetaxel concentration (percentage of area ratio) ([1]; time 6 hours) | Docetaxel concentration (percentage of area ratio) ([1]; time 8 hours) | solubility in pure polysorbate 80 [2] | solubility in a tensoactive aqueous solution [2] | Structure (SMILES)
1 | 99.61 percentage of area ratio | 99.59 percentage of area ratio | 99.57 percentage of area ratio | 99.57 percentage of area ratio | 99.54 percentage of area ratio | – | – | CC(=O)O[C@@]12CO[C@@H]1C[C@H](O)[C@@]1(C)C(=O)[C@H](O)C3=C(C)[C@@H](OC(=O)[C@H](O)[C@@H](NC(=O)OC(C)(C)C)c4ccccc4)C[C@@](O)([C@@H](OC(=O)c4ccccc4)[C@H]21)C3(C)C [Docetaxel]
2 | – | – | – | – | – | very difficultly | cannot be dissolved directly | CC(=O)O[C@@]12CO[C@@H]1C[C@H](O)[C@@]1(C)C(=O)[C@H](O)C3=C(C)[C@@H](OC(=O)[C@H](O)[C@@H](NC(=O)OC(C)(C)C)c4ccccc4)C[C@@](O)([C@@H](OC(=O)c4ccccc4)[C@H]21)C3(C)C [anhydrous docetaxel]
3 | – | – | – | – | – | very difficultly | cannot be dissolved directly | CC(=O)O[C@@]12CO[C@@H]1C[C@H](O)[C@@]1(C)C(=O)[C@H](O)C3=C(C)[C@@H](OC(=O)[C@H](O)[C@@H](NC(=O)OC(C)(C)C)c4ccccc4)C[C@@](O)([C@@H](OC(=O)c4ccccc4)[C@H]21)C3(C)C.O.O.O [trihydrate docetaxel]
